Reference: article PMC7497692 (Investigational New Drugs, 2020)
“And” between values parts separate entries of the source, which are not always exact repeats. Identical values can stand only once. Like-named read-outs stand apart in the source and are kept apart here.

How the values were obtained:
[1] = Oral and IV tracer PK and absolute bioavailability (part B); type: in vivo, human healthy male volunteers; settings: for bioavailability: 500 mg; for tlag / tmax: median (min–max)
Method: Participants were hospitalized from day 1 to day 7 of the study, and further assessed on days 9, 11, and 14 (study end).
In brief, the isotopically labeled internal standard [^2H]-MSC2156119A was added to 20 μL K2-ethylenediaminetetraacetic acid (EDTA) plasma. […] Samples were centrifuged and 10 μL aliquots of the supernatant were injected onto an Acquity Charged Surface Hybrid™ (CSH) C18 column (2.1 × 50 mm; […]; Waters, Milford, Massachusetts, USA). Separation was carried out using a mobile phase gradient (eluent A: water/formic acid [100 + 1, v/v]; eluent B: acetonitrile/formic acid [100 + 1, v/v]) with a flow rate of 0.6 mL/min. […] The lower limit of quantification (LLOQ) was 5.00 ng/mL, and the calibration standard responses were linear over the range between 5.00 and 2500 ng/mL using a weighted (1/x^2) linear regression.
The accelerator mass spectrometry (AMS) analysis of [^14C]-tepotinib in plasma samples in part B of the trial was performed by Eckert & Ziegler Vitalea Science (Davis, California, USA) using a validated method that involves isolation of the analyte by ultra-high-performance liquid chromatography (UPLC) fractionation, followed by the quantification of the ^14C content in collected fractions using AMS [26]. […] Following protein precipitation and further chemical steps, 50 μL of the reconstituted extracts were injected onto a Waters Acquity UPLC instrument equipped with a CSH fluoro-phenyl analytical column (3.0 × 100 mm; 1.7 μm; Waters, Milford, Massachusetts, USA) and an ethylene bridged hybrid C18 (2.1 × 5 mm; 1.7 μm; Waters, Milford, Massachusetts, USA) pre-column. Separation of [^14C]-tepotinib from potentially interfering metabolites or degradants that may have been present in the study samples was carried out using a mobile phase gradient (eluent A: 5 mM ammonium acetate in water; eluent B: acetonitrile) with a flow rate of 0.75 mL/min. […] Samples were then introduced into the BioMICADAS AMS instrument (PSI/ETH, Zurich, Switzerland). The LLOQ was 0.0883 pg/mL.
(§1) The maximum plasma concentration (Cmax) and time to reach maximum concentration (tmax) were derived directly from the plasma concentration–time data. Lag time (tlag) was the time prior to the first measurable (non-zero) concentration. The area under the plasma concentration–time curve from 0 to t (last measurable concentration; AUC0–t) was calculated using a mixed log–linear trapezoidal method. Area under the plasma concentration–time curve until the last sampling time (AUCall), which corresponds to AUC0–240 h within the observation period, was used for metabolite calculations. Amounts excreted in urine, feces, and total (urine + feces) were calculated as the sum of amounts (concentration multiplied by volume) for each collection from time 0 to time t. The terminal rate constant (λz) was used to estimate the terminal half-life (t½) (ln 2/λz), and the area under the concentration–time curve from time 0 to infinity (AUC0–∞). Total body clearance (CL) and apparent body clearance (CL/f) were determined by dose/AUC0–∞, and total volume of distribution (Vz) and apparent volume of distribution (Vz/f) were calculated by dose/(AUC0–∞*λz) after IV and oral administration, respectively. Volume of distribution of the central compartment (Vc) was derived by dividing the dose by the initial drug plasma concentration after IV administration. Absolute bioavailability was calculated as F = (AUCoral/doseoral)/(AUCIV/doseIV) × 100. The ratios (%) AUCtepotinib or metabolite/AUCtotal radioactivity were calculated as a percentage of the molar AUCs.

[2] = cited from earlier work
[3] = parameters: method as in PMID 31822497; settings: patients with solid tumors; cited from earlier work
[4] = Mass balance: excretion of radioactivity in urine and feces after oral [14C]-tepotinib (part A); type: in vivo, human healthy male volunteers
Method: Participants were hospitalized from day 1 to day 16 of the study, and further assessed on days 19, 22, and 25 (trial end). […] Pre-dose feces and urine samples were collected on day 1 and day 2, respectively. Urine was collected at 4- to 12-h intervals on day 1 and every 24 h thereafter up to day 16. Feces were collected every 24 h up to day 16. Provision was made to collect further samples up to day 39 if >1% of the administered dose was detectable in the total (urine and feces) excreta per day on two consecutive measurements.
Total radioactivity in blood, plasma, urine, and feces samples, and quick counts in urine and feces samples were determined at the bioanalytical laboratory of PRA (Assen, The Netherlands) using liquid scintillation counting (LSC). Scintillation cocktail Ultima Gold™ (5 mL; Perkin Elmar, Waltham, Massachusetts, USA) was directly spiked into 250 μL plasma and 1000 μL urine samples, respectively, whereas 300 μL aliquots of blood samples were solubilized and decolorized before adding 18 mL of the scintillation cocktail prior to LSC. Feces samples were (quantitatively) homogenized with one or two weight equivalents of water, and an accurately weighted aliquot of approximately 500 mg of the homogenate was dried at 50 °C for at least 3 h. After addition of 100 μL combustion aid, the dried samples were combusted in a sample oxidizer model 307 (Perkin Elmer, Waltham, Massachusetts, USA) using 7 mL CarboSorb® E as an absorber agent for carbon dioxide. At the end of the combustion cycle, the absorber was mixed with 13 mL of the scintillant PermaFluor® E. All scintillation counting using either low-level or normal count modes was carried out in duplicate using a Tri-Carb 3100 TR liquid scintillation analyzer (Perkin Elmer, Waltham, Massachusetts, USA), in compliance with analytical procedures validated by the PRA.
as §1

[5] = single oral 500 mg tablet, geometric mean (geometric CV%), min–max
[6] = single oral 500 mg tablet, listed as tepotinib
[7] = geometric mean of n=6, % of total radioactive dose, oral part A, listed as [^14C]-tepotinib
[8] = individual subjects 1–6, % of total radioactive dose, single oral 498 mg tepotinib + 2.67 MBq [14C]-tepotinib
[9] = maximum of n=6, % of total radioactive dose, oral part A
[10] = median of n=6, % of total radioactive dose, oral part A, listed as [^14C]-tepotinib
[11] = minimum of n=6, % of total radioactive dose, oral part A
[12] = range of n=6, % of oral [14C]-tepotinib dose

## CN1CCC(COc2cnc(-c3cccc(Cn4nc(-c5cccc(C#N)c5)ccc4=O)c3)nc2)CC1 [Tepotinib]
[1]; 500 mg tablet vs IV tracer, n=6
  absolute bioavailability, inter-individual variability (geometric CV): 10.8%
[1]; IV tracer, geometric mean (geometric CV%), min–max
  Vc: 34.6 L
[1]; IV tracer, geometric mean (geometric CV%), min–max, plasma
  t½: 31.2 h
[1]; male, human, in vivo, geometric mean, 500 mg phase II tablet formulation vs IV tracer, n=6, read-out: absolute bioavailability
  bioavailability: 72%
[1]; male, human, in vivo, range, 500 mg tablet vs IV tracer, n=6, read-out: absolute bioavailability, range
  bioavailability: 62 to 81%
[1]; male, human, in vivo, IV tracer, geometric mean (geometric CV%), min–max
  clearance: 213 mL/min
[1]; male, human, in vivo, IV tracer, geometric mean (geometric CV%), min–max, read-out: Vz
  Vd: 574 L
[1]; male, human, in vivo, single oral 500 mg tablet, geometric mean (geometric CV%), min–max, read-out: Vz/f
  Vd/F: 726 L
[1]; male, human, in vivo, summary statement in the discussion
  half-life: 30 h
[1]; [5]
  CL/f: 17.8 L/h
  t½: 28.3 h
[1]; single oral 500 mg tablet
  tlag: 0.52 (0.25–2.0) Hours
  tmax: 10.0 (3.0–10.0) Hours
[1]; [6]
  tlag: 0.5 h
  tmax: 10 h
[2]
  main binding partners in plasma: human serum albumin and α-acid glycoprotein
[2]; in vitro, concentration range 0.3–10 μM
  unbound fraction of tepotinib in human plasma: 1.6–3.4%
[3]
  maximum tolerated dose (not reached at doses administered): > 1400 mg/day
[4]; after dosing, below LLOQ at 312 and 336 h in two participants
  time up to which radioactivity was observed in urine: up to 360 h
[4]; after oral dose, part A
  time of first radioactivity detected in feces: 24 to 48 h
[4]; first collection period, part A
  time within which radioactivity was observed in urine: ≤ 4 h
[4]; geometric mean of n=6, % of total radioactive dose, oral part A
  Ae0–t total, Geometric mean: 91.90%
[4]; [7]
  Ae0–t feces, Geometric mean: 77.9% and 77.87%
  Ae0–t urine, Geometric mean: 13.6% and 13.61%
[4]; geometric mean, pie chart Fig. 1, oral part A
  radioactivity not recovered: 8.5%
[4]; [8]
  Ae0–t feces: 79.48% and 77.92% and 69.40% and 76.89% and 82.53% and 81.76%
  Ae0–t total (urine + feces): 88.28% and 91.60% and 87.12% and 93.36% and 94.46% and 96.93%
  Ae0–t urine: 8.80% and 13.68% and 17.72% and 16.47% and 11.93% and 15.17%
[4]; [9]
  Ae0–t feces, Max: 82.53%
  Ae0–t total, Max: 96.93%
  Ae0–t urine, Max: 17.72%
[4]; [10]
  Ae0–t feces, Median: 78.7%
  Ae0–t total, Median: 92.5% and 92.48%
  Ae0–t urine, Median: 14.4% and 14.43%
[4]; [11]
  Ae0–t feces, Min: 69.40%
  Ae0–t total, Min: 87.12%
  Ae0–t urine, Min: 8.80%
[4]; post-dose, all participants, part A
  time up to which excretion of radioactivity in feces was noted: up to 360 h
[4]; [12]
  radioactivity excreted in feces, range: 69.4–82.5%
  radioactivity excreted in urine, range: 8.8–17.7%
[4]; two consecutive measurements, days 15 and 16, all subjects
  [14C]-tepotinib dose recovered in excreta per day: < 1%
